Measurements published in US4103085A, “7-(Syn-α-alkoxy-iminofurylacetamido-3-(2-carboxyalkyl-2,3-dihy dro-s-triazolo[4,3-b]pyridazin-3-on-6-ylthiomethyl)-3-cephem-4-carboxylic acids” (Bristol-Myers Company, priority 1977, dated 1978).
Values after ≈ are worked out from the molar mass of the structure shown. Where a name gives a salt, the structure may show the parent alone.

Columns and labels:
Assay type in all cases: cell-based
S. aureus (3 strains) = test: In vitro activity, Mueller-Hinton agar, serial dilution method (Table 1); conditions: Staphylococcus aureus, read-out: Geometric Mean of MIC
E. coli (7) = test: as above; conditions: Escherichia coli, read-out: Geometric Mean of MIC
Kl. pneumoniae (4) = test: as above; conditions: Klebsiella pneumoniae, read-out: Geometric Mean of MIC
From the text: (§1) In vitro Activity Using Mueller-Hinton Agar
(§2) By the Serial Dilution Method

[1] = system: Shig. (3), Serr. (1) (1), Sal. (2); test: as above; conditions: read-out: Geometric Mean of MIC
From the text: as §1, §2

Proteus (6) = test: as above; conditions: read-out: Geometric Mean of MIC
[2] = system: B. anthracis (1) S. pyrogenes (5); test: microbe, parasite or virus in culture; conditions: Bacillus anthracis, read-out: Geometric Mean of MIC
S. viridans (5) = test: In vitro activity, Mueller-Hinton agar, serial dilution method (Table 1); conditions: Streptococcus viridans, read-out: Geometric Mean of MIC
D. pneumoniae (5) = test: as above; conditions: Streptococcus pneumoniae, read-out: Geometric Mean of MIC
N. meningitidis (5) = test: as above; conditions: Neisseria meningitidis, read-out: Geometric Mean of MIC
N. gonorrhoeae (5) = test: as above; conditions: Neisseria gonorrhoeae, read-out: Geometric Mean of MIC
H. influenzae (7) = test: as above; conditions: Haemophilus influenzae, read-out: Geometric Mean of MIC
E. cloacae = test: MICs in Mueller-Hinton agar (Table 2); conditions: Enterobacter cloacae, 1 strain, read-out: Geometric Means of MIC's
From the text: (§3) Geometric Means of MIC's Against 3 Strains
(§4) of S. aureus and 27 Strains of Gram-negative Bacteria
(§5) (mcg./ml., Mueller-Hinton Agar)

E. coli, Cephalosporin-R = test: MICs in Mueller-Hinton agar (Table 2); conditions: Escherichia coli, 1 strain, read-out: Geometric Means of MIC's
From the text: as §3, §4, §5

E. coli = test: MICs in Mueller-Hinton agar (Table 2); conditions: Escherichia coli, 6 strains, read-out: Geometric Means of MIC's
From the text: as §3, §4, §5

Indole (-) Proteus = test: MICs in Mueller-Hinton agar (Table 2); conditions: 2 strains, read-out: Geometric Means of MIC's
From the text: as §3, §4, §5

[3] = system: Indole(+) Proteus, Cephalosporin-R; test: MICs in Mueller-Hinton agar (Table 2); conditions: 2 strains, read-out: Geometric Means of MIC's
From the text: as §3, §4, §5

Indole(+) Proteus = test: MICs in Mueller-Hinton agar (Table 2); conditions: 3 strains, read-out: Geometric Means of MIC's
From the text: as §3, §4, §5

K. pneumoniae = test: MICs in Mueller-Hinton agar (Table 2); conditions: Klebsiella pneumoniae, 4 strains, read-out: Geometric Means of MIC's
From the text: as §3, §4, §5

P. aeruginosa = test: MICs in Mueller-Hinton agar (Table 2); conditions: Pseudomonas aeruginosa, 2 strains, read-out: Geometric Means of MIC's
From the text: as §3, §4, §5

S. aureus, Penicillin-R = test: MICs in Mueller-Hinton agar (Table 2); conditions: Staphylococcus aureus, 2 strains, read-out: Geometric Means of MIC's
From the text: as §3, §4, §5

S. aureus = test: MICs in Mueller-Hinton agar (Table 2); conditions: Staphylococcus aureus, 1 strain, read-out: Geometric Means of MIC's
From the text: as §3, §4, §5

S. marcescens [4] = test: MICs in Mueller-Hinton agar (Table 2); conditions: Serratia marcescens, 1 strain, read-out: Geometric Means of MIC's
From the text: as §3, §4, §5

Shigella, Salmonella = test: MICs in Mueller-Hinton agar (Table 2); conditions: 5 strains, read-out: Geometric Means of MIC's
From the text: as §3, §4, §5

S. marcescens [5] = test: MICs against 18 strains of S. marcescens (Table 3); conditions: Serratia marcescens, read-out: Geometric Means of MIC's
From the text: Geometric Means of MIC's Against 18 Strains

SMILES | MIC (S. aureus (3 strains)) | MIC (E. coli (7)) | MIC (Kl. pneumoniae (4)) | MIC [1] | MIC (Proteus (6)) | MIC [2] | MIC (S. viridans (5)) | MIC (D. pneumoniae (5)) | MIC (N. meningitidis (5)) | MIC (N. gonorrhoeae (5)) | MIC (H. influenzae (7)) | MIC (E. cloacae) | MIC (E. coli, Cephalosporin-R) | MIC (E. coli) | MIC (Indole (-) Proteus) | MIC [3] | MIC (Indole(+) Proteus) | MIC (K. pneumoniae) | MIC (P. aeruginosa) | MIC (S. aureus, Penicillin-R) | other results
CO/N=C(\C(=O)N[C@@H]1C(=O)N2C(C(=O)O)=C(CSc3ccc4nn(CC(=O)O)c(=O)n4n3)CS[C@H]12)c1ccco1 [BB-S511, 7-[(2Z)-2-Methoxyimino(fur-2-yl)acetamido]-3-(2-carboxymethyl-2,3-dihydro-s-triazolo[4,3-b]pyridazin-3-on-6-ylthiomethyl)-3-cephem-4-carboxylic Acid Disodium Salt] | 1.97 µg/mL | 0.58 µg/mL | 0.47 µg/mL | 1.11 µg/mL | 0.021 µg/mL | 0.032 µg/mL | 0.15 µg/mL | 0.037 µg/mL | 2.37 µg/mL | 1.36 µg/mL | 0.64 µg/mL | 3.1 µg/mL | 6.3 µg/mL | 0.2 µg/mL | 0.1 µg/mL | 6.3 µg/mL | 0.05 µg/mL | 0.7 µg/mL | > 100 µg/mL | 0.6 µg/mL | MIC (S. aureus): 1.6 µg/mL; MIC (S. marcescens [4]): 25 µg/mL; MIC (Shigella, Salmonella): 0.3 µg/mL; MIC (S. marcescens [5]): 5.4 µg/mL
CO/N=C(\C(=O)N[C@@H]1C(=O)N2C(C(=O)O)=C(COC(N)=O)CS[C@H]12)c1ccco1 [Cefuroxime, sodium 6R,7R-3-carbamoyloxymethyl-7-(2Z)-2-methoxyimino(fur-2-yl)acetamidoceph-3em-4-carboxylate, reference compound] | 1.24 µg/mL | 1.28 µg/mL | 3.1 µg/mL | 4.06 µg/mL | 0.88 µg/mL | 0.025 µg/mL | 0.1 µg/mL | 0.0125 µg/mL | 1.6 µg/mL | 0.4 µg/mL | 1.16 µg/mL | – | – | – | – | – | – | – | – | – | –
CO/N=C(\C(=O)N[C@@H]1C(=O)N2C(C(=O)O)=C(CSc3ccc4nn(CCC(=O)O)c(=O)n4n3)CS[C@H]12)c1ccco1 [BB-S526, 7-[(2Z)-2-Methoxyimino(fur-2-yl)acetamido]-3-[2-(2-carboxyethyl)-2,3-dihydro-s-triazolo[4,3-b]pyridazin-3-on-6-ylthiomethyl]-3-cephem-4-carboxylic Acid Sodium Salt] | 1.6 µg/mL | 0.78 µg/mL | 0.93 µg/mL | 2.41 µg/mL | 0.061 µg/mL | 0.032 µg/mL | 0.4 µg/mL | 0.056 µg/mL | 3.6 µg/mL | 1.6 µg/mL | 0.71 µg/mL | – | – | – | – | – | – | – | – | – | –
NCc1ccccc1CC(=O)N[C@@H]1C(=O)N2C(C(=O)O)=C(CSc3nnnn3CC(=O)O)CS[C@H]12 [BL-S786, 7-[α-(2-aminomethylphenyl)acetamido]-3-[(1-carboxymethyltetrazol-5-lthio)methyl]-3-cephem-4-carboxylic acid, reference compound] | – | – | – | – | – | – | – | – | – | – | – | 1.6 µg/mL (≈ 3.08 µM) | 12.5 µg/mL (≈ 24.1 µM) | 0.2 µg/mL (≈ 0.385 µM) | 0.2 µg/mL (≈ 0.385 µM) | 50.1 µg/mL (≈ 96.4 µM) | 0.3 µg/mL (≈ 0.577 µM) | 0.3 µg/mL (≈ 0.577 µM) | > 100 µg/mL | 1.6 µg/mL (≈ 3.08 µM) | MIC (S. marcescens [4]): > 100 µg/mL; MIC (Shigella, Salmonella): 0.5 µg/mL (≈ 0.962 µM); MIC (S. marcescens [5]): 85.9 µg/mL (≈ 165 µM)
